For 15 compounds, pest or weed control results are on record in US8865623B2, “Herbicidally active cyclic diones and derivatives thereof, processes for their preparation, compositions, and method of controlling weeds” (Syngenta Limited, priority 2009, dated 2014).

Holding throughout (format): in vivo
Experiment [1] relates to Echinochloa crus-galli (ECHCG). The experiment can be described thus: Pre-emergence herbicidal activity, glasshouse pot test. The conditions noted are these: Echinochloa crus-galli, 312 h, Rate 250 g/ha, evaluated after 13 days, read-out: Pre-emergence activity ECHCG (100=total damage to plant; 0=no damage to plant). The method, boiled down:
(§1)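 After sowing in standard soil, pots were cultivated for one day (pre-emergence) or eight days (post-emergence), then sprayed. Plants were watered twice daily in the glasshouse, and damage was rated 13 days after treatment, 0 being none and 100 total.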

In experiment [2] the test system is Lolium perenne (LOLPE). The description is as above. The settings on record: Lolium perenne, 312 h, Rate 250 g/ha, evaluated after 13 days, read-out: Pre-emergence activity LOLPE (100=total damage to plant; 0=no damage to plant). The method, boiled down:
as §1

In experiment [3] the test system is Alopecurus myosuroides (ALOMY). Described as above. The conditions noted are these: Alopecurus myosuroides, 312 h, Rate 250 g/ha, evaluated after 13 days, read-out: Pre-emergence activity ALOMY (100=total damage to plant; 0=no damage to plant). In outline: as §1
Experiment [4] relates to Avena fatua (AVEFA). The experiment is described as above. The conditions noted are these: Avena fatua, 312 h, Rate 250 g/ha, evaluated after 13 days, read-out: Pre-emergence activity AVEFA (100=total damage to plant; 0=no damage to plant). The method, boiled down: as §1
The subject of experiment [5] is Echinochloa crus-galli (ECHCG). The experiment can be described thus: Post-emergence herbicidal activity, glasshouse pot test. The conditions noted are these: Echinochloa crus-galli, 312 h, rate 250 g/ha, evaluated after 13 days, read-out: Post-emergence activity ECHCG (100=total damage to plant; 0=no damage to plant). The method, boiled down: as §1
Experiment [6] has as its system Lolium perenne (LOLPE). The experiment is described as above. The settings on record: Lolium perenne, 312 h, rate 250 g/ha, evaluated after 13 days, read-out: Post-emergence activity LOLPE (100=total damage to plant; 0=no damage to plant). In outline:
as §1

Experiment [7] deals with Alopecurus myosuroides (ALOMY). The experiment is described as above. The conditions noted are these: Alopecurus myosuroides, 312 h, rate 250 g/ha, evaluated after 13 days, read-out: Post-emergence activity ALOMY (100=total damage to plant; 0=no damage to plant). In outline: as §1
For experiment [8], the system named is Avena fatua (AVEFA). The experiment is described as above. The conditions noted are these: Avena fatua, 312 h, rate 250 g/ha, evaluated after 13 days, read-out: Post-emergence activity AVEFA (100=total damage to plant; 0=no damage to plant). The method, boiled down:
as §1

Regarding `CCc1ccc(Oc2ccc(Br)cc2F)cc1C1=C(O)[C@H]2CC[C@H](C2)C1=O` [Example A-250], the pest or weed control at 250 g/ha turned out to be 90% in experiment [1] (pre-emergence spray); 80% in experiment [2] (pre-emergence spray); 80% in experiment [3] (pre-emergence spray); 50% in experiment [4] (pre-emergence spray); 100% in experiment [5] (glasshouse); 80% in experiment [6] (glasshouse). Further, the pest or weed control at 250 g/ha in experiment [7] (glasshouse) turned out to be 90%; in experiment [8] (glasshouse) it was 80%.
In the case of `CCc1ccc(Oc2ccc(Cl)cc2F)cc1C1=C(O)CCC(C)(C)C1=O` [Example A-112], the pest or weed control at 250 g/ha in experiment [1] (pre-emergence spray) is 60%; in experiment [2] (pre-emergence spray), 90%; in experiment [3] (pre-emergence spray), 40%; in experiment [4] (pre-emergence spray), 30%; in experiment [5] (glasshouse) it was 70%; in experiment [6] (glasshouse) it was 60%. Also, the pest or weed control at 250 g/ha in experiment [7] (glasshouse) and in experiment [8] (glasshouse) was 20% throughout.
Consider `CCc1ccc(Oc2ccc(F)cc2)cc1C1=C(O)CC2(CCOCC2)CC1=O` [Example A-35], for which the pest or weed control at 250 g/ha in experiment [1] (pre-emergence spray) worked out at 100%; in experiment [2] (pre-emergence spray), 70%; in experiment [3] (pre-emergence spray) it was 90%; in experiment [4] (pre-emergence spray), 70%; in experiment [5] (glasshouse), 100%; in experiment [6] (glasshouse) it was 80%. Besides, the pest or weed control at 250 g/ha in experiment [7] (glasshouse) was 80%; in experiment [8] (glasshouse) it was 90%.
For `CC1(C)OC(C)(C)C(O)=C(c2cc(Oc3ccc(Cl)cc3)ccc2C2CC2)C1=O` [Example A-349], the pest or weed control at 250 g/ha in experiment [1] (pre-emergence) was determined as 100%; in experiment [2] (pre-emergence), 90%; in experiment [3] (pre-emergence) it was 40%; in experiment [4] (pre-emergence) it was 10%; in experiment [5], 100%; in experiment [6], 80%. The results for the pest or weed control at 250 g/ha in experiment [7] and in experiment [8] were 60% and 0%, respectively.
For `CCc1ccc(Oc2ccc3ccccc3n2)cc1C1=C(O)[C@@H]2CC[C@](C)(C1=O)C2(C)C` [Example A-321], the pest or weed control at 250 g/ha in experiment [1] (pre-emergence spray) turned out to be 100%; in experiment [2] (pre-emergence spray) it was 90%; in experiment [3] (pre-emergence spray) it was 70%; in experiment [4] (pre-emergence spray), 50%; in experiment [5] (glasshouse), 100%; in experiment [6] (glasshouse) it was 90%. In addition, the pest or weed control at 250 g/ha in experiment [7] (glasshouse) and in experiment [8] (glasshouse) was 90% throughout.
Consider `CCc1ccc(Oc2ncc(Br)cn2)cc1C1=C(O)C(C)(C)OC(C)(C)C1=O` [Example A-109], for which the pest or weed control at 250 g/ha was 100% in experiment [1] (pre-emergence spray); 80% in experiment [2] (pre-emergence spray); 80% in experiment [3] (pre-emergence spray); 70% in experiment [4] (pre-emergence spray); 100% in experiment [5] (glasshouse); 90% in experiment [6] (glasshouse). Besides, the pest or weed control at 250 g/ha in experiment [7] (glasshouse) and in experiment [8] (glasshouse) was 90% throughout.
For `CCc1ccc(Oc2ncc(C(F)(F)F)cc2F)cc1C1=C(O)CC(C)(C)CC1=O` [Example A-285], the pest or weed control at 250 g/ha in experiment [1] (pre-emergence spray) was found to be 100%; in experiment [2] (pre-emergence spray), 100%; in experiment [3] (pre-emergence spray) it was 90%; in experiment [4] (pre-emergence spray), 70%; in experiment [5] (glasshouse), 100%; in experiment [6] (glasshouse), 100%. In addition, the pest or weed control at 250 g/ha in experiment [7] (glasshouse) and in experiment [8] (glasshouse) was 100% each time.
With `CCc1ccc(Oc2nc3ccc([N+](=O)[O-])cc3s2)cc1C1=C(O)[C@H]2CC[C@H](C2)C1=O` [Example A-342], the pest or weed control at 250 g/ha is 100% in experiment [1] (pre-emergence spray); 100% in experiment [2] (pre-emergence spray); 90% in experiment [3] (pre-emergence spray); 60% in experiment [4] (pre-emergence spray); 100% in experiment [5] (glasshouse); 60% in experiment [6] (glasshouse). Also, the pest or weed control at 250 g/ha in experiment [7] (glasshouse) turned out to be 60%; in experiment [8] (glasshouse) it was 70%.
Regarding `CCc1ccc(Oc2ncc(C(F)(F)F)cc2Cl)cc1C1=C(O)C(C)(C)OC(C)(C)C1=O` [Example A-45], the pest or weed control at 250 g/ha in experiment [1] (pre-emergence spray), in experiment [2] (pre-emergence spray), in experiment [3] (pre-emergence spray), in experiment [4] (pre-emergence spray), in experiment [5] (glasshouse) and in experiment [6] (glasshouse) was 100% each time. The pest or weed control at 250 g/ha in experiment [7] (glasshouse) and in experiment [8] (glasshouse) was 100% in each case.
Consider `CCc1ccc(Oc2ccc(Br)cc2F)cc1C1=C(O)CC(C)(C)CC1=O` [Example A-49], for which the pest or weed control at 250 g/ha in experiment [1] (pre-emergence spray) turned out to be 100%; in experiment [2] (pre-emergence spray), 100%; in experiment [3] (pre-emergence spray), 90%; in experiment [4] (pre-emergence spray), 40%; in experiment [5] (glasshouse), 100%; in experiment [6] (glasshouse), 90%. Moreover, the pest or weed control at 250 g/ha in experiment [7] (glasshouse) came to 90%; in experiment [8] (glasshouse), 70%.
`CCc1ccc(Oc2ncnc3sccc23)cc1C1=C(O)C(C)(C)OC(C)(C)C1=O` [Example A-126]: the pest or weed control at 250 g/ha is 10% in experiment [1] (pre-emergence spray); 0% in experiment [2] (pre-emergence spray); 0% in experiment [3] (pre-emergence spray); 0% in experiment [4] (pre-emergence spray); 50% in experiment [5] (glasshouse); 10% in experiment [6] (glasshouse). For the same compound, the pest or weed control at 250 g/ha in experiment [7] (glasshouse) amounted to 10%; in experiment [8] (glasshouse) it was 20%.
As to `CCc1ccc(Oc2ccc(Cl)c(F)c2)cc1C1=C(O)C(C)(C)OC(C)(C)C1=O` [Example A-31], the pest or weed control at 250 g/ha was 100% in experiment [1] (pre-emergence spray); 100% in experiment [2] (pre-emergence spray); 90% in experiment [3] (pre-emergence spray); 80% in experiment [4] (pre-emergence spray); 100% in experiment [5] (glasshouse); 100% in experiment [6] (glasshouse). Moreover, the pest or weed control at 250 g/ha came out at 90% in experiment [7] (glasshouse) and 80% in experiment [8] (glasshouse).
Consider `CC1(C)OC(C)(C)C(O)=C(c2cc(Oc3cc(C#N)ccc3F)ccc2C2CC2)C1=O` [Example A-358], for which the pest or weed control at 250 g/ha was found to be 90% in experiment [1] (pre-emergence); 90% in experiment [2] (pre-emergence); 60% in experiment [3] (pre-emergence); 0% in experiment [4] (pre-emergence); 100% in experiment [5]; 60% in experiment [6]. For the same compound, the pest or weed control at 250 g/ha in experiment [7] came out at 90%; in experiment [8], 60%.
Consider `CCc1ccc(Oc2cnc3ccccc3n2)cc1C1=C(O)CC(C)(C)CC1=O` [Example A-291], for which the pest or weed control at 250 g/ha is 100% in experiment [1] (pre-emergence spray); 100% in experiment [2] (pre-emergence spray); 70% in experiment [3] (pre-emergence spray); 90% in experiment [4] (pre-emergence spray); 100% in experiment [5] (glasshouse); 100% in experiment [6] (glasshouse). Besides, the pest or weed control at 250 g/ha in experiment [7] (glasshouse) and in experiment [8] (glasshouse) was 100% in each case.
Regarding `CCc1ccc(Oc2ccc(Br)c(Cl)c2)cc1C1=C(O)C(C)(C)OC(C)(C)C1=O` [Example A-10], the pest or weed control at 250 g/ha came out at 90% in experiment [1] (pre-emergence spray); 30% in experiment [2] (pre-emergence spray); 0% in experiment [3] (pre-emergence spray); 20% in experiment [4] (pre-emergence spray); 100% in experiment [5] (glasshouse); 100% in experiment [6] (glasshouse). The pest or weed control at 250 g/ha in experiment [7] (glasshouse) came out at 100%; in experiment [8] (glasshouse) it was 90%.
